Measured values reported in ChEMBL document CHEMBL5230103, “Hydroxamic acid hybrids as the potential anticancer agents: An Overview” (Eur J Med Chem, 2020).
≈ marks a conversion by molar mass, not a printed value.

Columns and labels:
MV4-11 = experiment: Cytotoxicity against human MV4-11 cells assessed as inhibition of cell growth by SRB assay; type: functional, cell-based
Histone deacetylase = experiment: Inhibition of HDAC (unknown origin); type: protein assay, Homo sapiens
PC-3 [1] = experiment: Cytotoxicity against human PC-3 cells assessed as inhibition of cell growth by SRB assay; type: functional, cell-based
Histone deacetylase 2 = Histone deacetylase 2 (Homo sapiens, UniProt Q92769); experiment: Inhibition of HDAC2 (unknown origin)
MCF7 [2] = experiment: cells; type: functional, cell-based; settings: Homo sapiens, MCF7, 72 h
Description: Cytotoxicity against human MCF7 cells assessed as inhibition of cell growth measured after 72 hrs by MTT assay

U2OS = experiment: cells; type: functional, cell-based; settings: Homo sapiens, 72 h
Description: Cytotoxicity against human U2OS cells assessed as inhibition of cell growth measured after 72 hrs by MTT assay

HepG2 [3] = experiment: Cytotoxicity against human HepG2 cells assessed as inhibition of cell growth measured after 72 hrs by MTT assay; type: functional, cell-based; settings: HepG2, 72 h
HepG2 [4] = experiment: Cytotoxicity against human HepG2 cells assessed as inhibition of cell growth by MTT assay; type: functional, cell-based
MCF7 [5] = experiment: Cytotoxicity against human MCF7 cells assessed as inhibition of cell growth by MTT assay; type: functional, cell-based
HCT-116 = experiment: Cytotoxicity against human HCT-116 cells assessed as inhibition of cell growth by MTT assay; type: functional, cell-based
PC-3 [6] = experiment: Cytotoxicity against human PC-3 cells assessed as inhibition of cell growth by MTT assay; type: functional, cell-based
ASPC1 = experiment: Cytotoxicity against human ASPC1 cells assessed as inhibition of cell growth by MTT assay; type: functional, cell-based
SW-620 [7] = experiment: Cytotoxicity against human SW620 cells assessed as inhibition of cell growth by MTT assay; type: functional, cell-based
SW-620 [8] = experiment: Potency index, ratio of vorinostat IC50 to test compound IC50 for cytotoxicity against human SW620 cells assessed as inhibition of cell growth by MTT assay; type: functional
PC-3 [9] = experiment: Potency index, ratio of vorinostat IC50 to test compound IC50 for cytotoxicity against human PC-3 cells assessed as inhibition of cell growth by MTT assay; type: functional
NCI-H23 [10] = experiment: Potency index, ratio of vorinostat IC50 to test compound IC50 for cytotoxicity against human NCI-H23 cells assessed as inhibition of cell growth by MTT assay; type: functional
NCI-H23 [11] = experiment: Cytotoxicity against human NCI-H23 cells assessed as inhibition of cell growth by MTT assay; type: functional, cell-based
HL-60 = experiment: Antiproliferative activity against human HL-60 cells assessed as inhibition of cell growth by MTT assay; type: functional, cell-based
RPMI-8226 = experiment: Cytotoxicity against human RPMI-8226 cells assessed as inhibition of cell growth by MTS assay; type: functional, cell-based

Histone deacetylase 2, sequence (Q92769 whole entry): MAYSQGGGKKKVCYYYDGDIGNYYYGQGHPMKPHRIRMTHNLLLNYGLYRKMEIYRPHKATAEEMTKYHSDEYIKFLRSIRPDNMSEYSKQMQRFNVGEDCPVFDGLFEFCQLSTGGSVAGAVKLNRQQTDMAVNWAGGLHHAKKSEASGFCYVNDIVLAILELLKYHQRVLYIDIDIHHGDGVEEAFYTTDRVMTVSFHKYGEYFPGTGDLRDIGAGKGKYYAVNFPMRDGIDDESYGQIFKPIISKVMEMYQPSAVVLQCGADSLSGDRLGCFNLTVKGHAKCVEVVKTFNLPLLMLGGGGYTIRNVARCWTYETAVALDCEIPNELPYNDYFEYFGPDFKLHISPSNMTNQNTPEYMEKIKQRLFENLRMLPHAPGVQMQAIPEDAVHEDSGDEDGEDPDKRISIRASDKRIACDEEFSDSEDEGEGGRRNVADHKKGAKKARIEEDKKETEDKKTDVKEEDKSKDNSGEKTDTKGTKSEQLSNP

`CC(C)n1cnc2c(-c3cccc(OCCCCCC(=O)NO)c3)nc(N3CCOCC3)nc21` gave an IC50 (MV4-11) of 160 nM, an IC50 (Histone deacetylase) of 35 nM and an IC50 (PC-3 [1]) of 160 nM.

Molecule `O=C(CCCn1cc(CN2C(=O)/C(=N\O)c3cc(Br)ccc32)nn1)NO` has an IC50 (Histone deacetylase 2) of 910 nM.

Work on `CC(C)n1cnc2c(-c3cccc(COCCCCCC(=O)NO)c3)nc(N3CCOCC3)nc21` yielded an IC50 (MV4-11) of 160 nM, an IC50 (Histone deacetylase) of 35 nM and an IC50 (PC-3 [1]) of 160 nM.

In the case of `COc1cc(NC(C)CCCNC(=O)CCC(=O)NO)c2ncccc2c1` (stereo not given), the IC50 (MCF7 [2]) is reported as 1600 nM, the IC50 (U2OS) is reported as 1600 nM and the IC50 (HepG2 [3]) is reported as 1600 nM.

Work on `O=C(COc1ccc(C(=O)/C=C/c2ccc(F)cc2)cc1)NO` yielded an IC50 (HepG2 [4]) of 620 nM, an IC50 (MCF7 [5]) of 620 nM and an IC50 (HCT-116) of 620 nM.

For `O=C(CCCn1cc(CN2C(=O)/C(=N\O)c3cc(F)ccc32)nn1)NO`, the IC50 (Histone deacetylase 2) was 910 nM.

Work on `O=C(CCCCCCN1C(=O)C2(OCCO2)c2cccc(Cl)c21)NO` yielded an IC50 (PC-3 [6]) of 50 nM, an IC50 (ASPC1) of 50 nM and an IC50 (SW-620 [7]) of 50 nM. For the same molecule, the IC50 (Histone deacetylase 2) was 30 nM.

In the case of `COc1cc2ncn(Cc3ccc(C(=O)NO)cc3)c(=O)c2cc1OC`, the IC50 (PC-3 [6]) is reported as 620 nM, the IC50 (Histone deacetylase) is reported as 370 nM and the “Ratio IC50” value (SW-620 [8]) is reported as greater than 3. For the same molecule, the “Ratio IC50” value (PC-3 [9]) was greater than 3, the IC50 (SW-620 [7]) was 620 nM and the “Ratio IC50” value (NCI-H23 [10]) was greater than 3. It also gave an IC50 (NCI-H23 [11]) of 620 nM.

`O=C(/C=C/c1ccc(CN2C(=O)C3(OCCO3)c3ccccc32)cc1)NO` was tested, and the IC50 (PC-3 [6]) was greater than 3050 nM, the IC50 (ASPC1) was greater than 3050 nM and the IC50 (SW-620 [7]) was greater than 3050 nM.

`Cc1ccc(-c2nnc(NC(=O)CCCCCCC(=O)NO)s2)s1` gave an IC50 (PC-3 [6]) of 880 nM, an IC50 (ASPC1) of 880 nM and an IC50 (MCF7 [5]) of 880 nM. The IC50 (SW-620 [7]) was 880 nM.

`CC(C)n1cnc2c(-c3cccc(OCC(=O)NO)c3)nc(N3CCOCC3)nc21` was tested, and the IC50 (MV4-11) was 160 nM, the IC50 (Histone deacetylase) was 35 nM and the IC50 (PC-3 [1]) was 160 nM.

For `C[C@H]1[C@@H](NC(=O)CCCCCC(=O)NO)O[C@@H]2O[C@@]3(C)CC[C@H]4[C@H](C)CC[C@@H]1[C@@]24OO3`, the IC50 (HL-60) was 1.28 µg/mL (≈ 2.91 µM), the IC50 (HepG2 [4]) was 1.28 µg/mL and the IC50 (MCF7 [5]) was 1.28 µg/mL.

`CC(C)n1cnc2c(-c3ccc(OCCCCC(=O)NO)cc3)nc(N3CCOCC3)nc21` showed an IC50 (MV4-11) of 970 nM, an IC50 (Histone deacetylase) of 278 nM and an IC50 (PC-3 [1]) of 970 nM.

`CC(C)n1cnc2c(-c3ccc(COCCCCCCC(=O)NO)cc3)nc(N3CCOCC3)nc21` showed an IC50 (MV4-11) of 970 nM, an IC50 (Histone deacetylase) of 278 nM and an IC50 (PC-3 [1]) of 970 nM.

`CCCCCSc1ncc(C(=O)NO)c(N(Cc2ccccc2)S(=O)(=O)c2cccc(OC)c2)n1` gave an IC50 (RPMI-8226) greater than 5600 nM.

`O=C(CCCCCCC(=O)Nc1nnc(-c2cccs2)s1)NO` showed an IC50 (PC-3 [6]) of 880 nM, an IC50 (ASPC1) of 880 nM and an IC50 (MCF7 [5]) of 880 nM. It also gave an IC50 (SW-620 [7]) of 880 nM.

`O=C(COc1ccc(C(=O)/C=C/c2ccccc2)cc1)NO` gave an IC50 (HepG2 [4]) of 620 nM, an IC50 (MCF7 [5]) of 620 nM and an IC50 (HCT-116) of 620 nM.

In the case of `O=C(Cn1cnc2c(c1=O)C1CCCCC1S2)Nc1ccc(C(=O)NO)cc1` (stereo not given), the IC50 (HepG2 [4]) is reported as 4860 nM, the IC50 (MCF7 [5]) is reported as 4860 nM and the IC50 (HCT-116) is reported as 4860 nM.

With `C[C@H]1[C@@H](NC(=O)CCCCC(=O)NO)O[C@@H]2O[C@@]3(C)CC[C@H]4[C@H](C)CC[C@@H]1[C@@]24OO3` the IC50 (HL-60) was 1.28 µg/mL (≈ 3 µM), the IC50 (HepG2 [4]) was 1.28 µg/mL and the IC50 (MCF7 [5]) was 1.28 µg/mL.

For `CC(C)n1cnc2c(-c3cccc(OCCCCCCCC(=O)NO)c3)nc(N3CCOCC3)nc21`, the IC50 (MV4-11) was 160 nM, the IC50 (Histone deacetylase) was 35 nM and the IC50 (PC-3 [1]) was 160 nM.

`Cc1ccc(-c2nnc(NC(=O)CCCCCCC(=O)NO)s2)o1` gave an IC50 (PC-3 [6]) of 880 nM, an IC50 (ASPC1) of 880 nM and an IC50 (MCF7 [5]) of 880 nM. For the same molecule, the IC50 (SW-620 [7]) was 880 nM.

In the case of `C[C@H]1[C@@H](NC(=O)CCCC(=O)NO)O[C@@H]2O[C@@]3(C)CC[C@H]4[C@H](C)CC[C@@H]1[C@@]24OO3`, the IC50 (HL-60) is reported as 1.28 µg/mL (≈ 3.1 µM), the IC50 (HepG2 [4]) is reported as 1.28 µg/mL and the IC50 (MCF7 [5]) is reported as 1.28 µg/mL.

`O=C(CCCCCCC(=O)Nc1nnc(-c2ccco2)s1)NO` showed an IC50 (PC-3 [6]) of 880 nM, an IC50 (ASPC1) of 880 nM and an IC50 (MCF7 [5]) of 880 nM. It also gave an IC50 (SW-620 [7]) of 880 nM.

In the case of `CCCCCSc1ncc(C(=O)NO)c(N(Cc2ccccc2)S(=O)(=O)c2ccc(F)cc2)n1`, the IC50 (RPMI-8226) is reported as greater than 5600 nM.

`CC(C)n1cnc2c(-c3ccc(COCCCCC(=O)NO)cc3)nc(N3CCOCC3)nc21` gave an IC50 (MV4-11) of 970 nM, an IC50 (Histone deacetylase) of 278 nM and an IC50 (PC-3 [1]) of 970 nM.

Molecule `CCCCCSc1ncc(C(=O)NO)c(N(Cc2ccccc2)S(=O)(=O)c2ccc(OC)cc2)n1` has an IC50 (RPMI-8226) greater than 7800 nM.

In the case of `CC(C)n1cnc2c(-c3ccc(OCCCCCCCC(=O)NO)cc3)nc(N3CCOCC3)nc21`, the IC50 (MV4-11) is reported as 970 nM, the IC50 (Histone deacetylase) is reported as 278 nM and the IC50 (PC-3 [1]) is reported as 970 nM.
